This passage reports DC50 results from US20240287076A1, “COMPOUNDS FOR TARGETING DEGRADATION OF BRUTON'S TYROSINE KINASE” (BIOGEN MA INC., priority 2021, published 2024).

The target in the experiment is T1, BTK (Homo sapiens, UniProt Q06187).
T1 construct: The GM01501.3 cell line endogenously expresses BTK with a HiBiT fusion tag via CRISPR knock-in at its C-terminal region; endogenous in cells; host or cells: GM01501.3 (GM01501 cells engineered by CRISPR knock-in of HiBiT at the BTK locus)
Put plainly: BTK degradation assay using the HiBiT Method (Nano-Glo HiBiT Lytic Assay, GM01501.3 cells). It counts as cell-based. The conditions noted are these: HiBiT Degradation on GM01501.3 BTK @ 6 hours. The essentials:
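CRISPR knock-in GM01501.3 cells expressing endogenous BTK with C-terminal HiBiT tag, treated 6 h at 37 °C with compounds, 11-point half-log titration from 10 μM top, duplicates. Remaining BTK quantified by Nano-Glo HiBiT lytic luminescence versus DMSO controls; DC50 reported.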
(In general: With HiBiT, luminescence reflects the tagged protein that the partner subunit can reach.)

T1 sequence (Q06187 whole entry, the tested form may be a part): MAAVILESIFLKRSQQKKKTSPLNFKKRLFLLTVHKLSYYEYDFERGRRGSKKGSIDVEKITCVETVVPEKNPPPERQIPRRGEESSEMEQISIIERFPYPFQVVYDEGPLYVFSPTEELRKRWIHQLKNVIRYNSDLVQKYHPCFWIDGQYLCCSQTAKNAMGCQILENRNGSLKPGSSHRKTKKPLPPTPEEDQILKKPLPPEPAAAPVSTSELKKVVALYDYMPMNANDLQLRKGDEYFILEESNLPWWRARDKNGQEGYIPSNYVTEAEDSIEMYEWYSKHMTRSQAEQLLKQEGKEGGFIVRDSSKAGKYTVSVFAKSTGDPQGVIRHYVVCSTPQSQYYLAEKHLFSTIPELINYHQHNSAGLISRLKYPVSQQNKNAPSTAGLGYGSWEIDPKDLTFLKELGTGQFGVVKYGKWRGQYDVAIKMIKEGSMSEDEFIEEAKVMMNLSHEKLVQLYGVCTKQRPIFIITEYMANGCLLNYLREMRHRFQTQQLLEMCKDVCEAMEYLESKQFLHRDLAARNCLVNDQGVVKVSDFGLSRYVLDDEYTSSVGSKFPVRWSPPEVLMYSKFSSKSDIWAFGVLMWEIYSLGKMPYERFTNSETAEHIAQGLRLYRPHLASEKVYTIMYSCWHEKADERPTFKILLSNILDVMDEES

With `Cc1cc(-c2ncnn3cc(-c4ccc(CCN5CCC(c6ccc(C7CCC(=O)NC7=O)cc6)CC5)cc4)cc23)ccc1CNC(=O)c1noc(C(C)(C)C)n1` (stereo not drawn) [Example 52, 5-tert-butyl-N-[[4-[6-[4-[2-[4-[4-(2,6-dioxo-3-piperidyl)phenyl]-1-piperidyl]ethyl]phenyl]pyrrolo[2,1-f][1,2,4]triazin-4-yl]-2-methyl-phenyl]methyl]-1,2,4-oxadiazole-3-carboxamide], the DC50 – broadly, the midpoint of the concentration-degradation curve – was less than 100 nM.

As to `Cc1cc(-c2ncnn3cc(CCN4CCC(c5ccc(C6CCC(=O)NC6=O)cc5)C(F)(F)C4)cc23)ccc1CNC(=O)c1noc(C(C)(C)C)n1` (stereo not drawn) [Example 119, 5-tert-butyl-N-[[4-[6-[2-[4-[4-(2,6-dioxo-3-piperidyl)phenyl]-3,3-difluoro-1-piperidyl]ethyl]pyrrolo[2,1-f][1,2,4]triazin-4-yl]-2-methyl-phenyl]methyl]-1,2,4-oxadiazole-3-carboxamide], the DC50 is less than 100 nM. `CC(C)(C)c1nc(C(=O)NCc2ccc(-c3ncnn4cc(-c5ccc(CN6CCC(c7ccc(NC8CCC(=O)NC8=O)cc7)CC6)cc5)cc34)cc2)no1` (stereo not drawn) [Example 41, 5-tert-butyl-N-[[4-[6-[4-[[4-[4-[(2,6-dioxo-3-piperidyl)amino]phenyl]-1-piperidyl]methyl]phenyl]pyrrolo[2,1-f][1,2,4]triazin-4-yl]phenyl]methyl]-1,2,4-oxadiazole-3-carboxamide] had a DC50 of less than 100 nM. The value for `Cc1cc(-c2ncnn3cc(-c4ccc(CN(C)CCCc5ccc(NC6CCC(=O)NC6=O)cc5)cc4)cc23)ccc1CNC(=O)c1noc(C(C)(C)C)n1` (stereo not drawn) [Example 11, 5-tert-butyl-N-[[4-[6-[4-[[3-[4-[(2,6-dioxo-3-piperidyl)amino]phenyl]propyl-methyl-amino]methyl]phenyl]pyrrolo[2,1-f][1,2,4]triazin-4-yl]-2-methyl-phenyl]methyl]-1,2,4-oxadiazole-3-carboxamide] was less than 100 nM; that for `Cc1cc(-c2ncnn3cc(COCCN4CCC(c5ccc(C6CCC(=O)NC6=O)cc5)CC4)cc23)ccc1CNC(=O)c1noc(C(C)(C)C)n1` (stereo not drawn) [Example 144, 5-tert-butyl-N-[[4-[6-[2-[4-[4-(2,6-dioxo-3-piperidyl)phenyl]-1-piperidyl]ethoxymethyl]pyrrolo[2,1-f][1,2,4]triazin-4-yl]-2-methyl-phenyl]methyl]-1,2,4-oxadiazole-3-carboxamide] was less than 100 nM; that for `Cc1cc(-c2ncnn3cc(-c4ccc(CN5CCC(c6ccc7c(N8CCC(=O)NC8=O)nn(C)c7c6)CC5)cc4)cc23)ccc1CNC(=O)c1noc(C(C)(C)C)n1` [Example 28, 5-tert-butyl-N-[[4-[6-[4-[[4-[3-(2,4-dioxohexahydropyrimidin-1-yl)-1-methyl-indazol-6-yl]-1-piperidyl]methyl]phenyl]pyrrolo[2,1-f][1,2,4]triazin-4-yl]-2-methyl-phenyl]methyl]-1,2,4-oxadiazole-3-carboxamide] was less than 100 nM.

`Cc1cc(-c2ncnn3cc(N4CCN(C(=O)CC5CC(NC(=O)c6ccc(OC7CCC(=O)NC7=O)cc6)C5)CC4)cc23)ccc1CNC(=O)c1noc(C(C)(C)C)n1` (stereo not drawn) [Example 175, 5-(tert-butyl)-N-(4-(6-(4-(2-(3-(4-((2,6-dioxopiperidin-3-yl)oxy)benzamido)cyclobutyl)acetyl)piperazin-1-yl)pyrrolo[2,1-f][1,2,4]triazin-4-yl)-2-methylbenzyl)-1,2,4-oxadiazole-3-] registered a DC50 of 100 to 500 nM.

`Cc1ccc(C(=O)NCc2ccc(-c3ncnn4cc(-c5ccc(CN6CCC(c7ccc(NC8CCC(=O)NC8=O)cc7)CC6)cc5)cc34)cc2C)cc1` (stereo not drawn) [Example 68, N-[[4-[6-[4-[[4-[4-[(2,6-dioxo-3-piperidyl)amino]phenyl]-1-piperidyl]methyl]phenyl]pyrrolo[2,1-f][1,2,4]triazin-4-yl]-2-methyl-phenyl]methyl]-4-methyl-benzamide] gave a DC50 of less than 100 nM.

Consider `Cc1cc(-c2ncnn3cc(CCN4CC[C@@H](c5ccc6c(N7CCC(=O)NC7=O)nn(C)c6c5)C4)cc23)ccc1CNC(=O)c1noc(C(C)(C)C)n1` (single isomer, unassigned) [Example 266], for which the DC50 was less than 100 nM. `Cc1cc(-c2ncnn3cc(CCN4CCC(c5ccc(OC6CCC(=O)NC6=O)cn5)CC4)cc23)ccc1CNC(=O)c1noc(C(C)(C)C)n1` (stereo not drawn) [Example 264, 5-(tert-butyl)-N-(4-(6-(2-(4-(5-((2,6-dioxopiperidin-3-yl)oxy)pyridin-2-yl)piperidin-1-yl)ethyl)pyrrolo[2,1-f][1,2,4]triazin-4-yl)-2-methylbenzyl)-1,2,4-oxadiazole-3-carboxamide] came in with a DC50 of less than 100 nM. `CC(C)(C)c1nc(C(=O)NCc2ccc(-c3ncnn4cc(-c5ccc(CN6CCCC(c7ccc(OC8CCC(=O)NC8=O)cc7)C6)cn5)cc34)cc2F)no1` (stereo not drawn) [Example 236, 5-(tert-butyl)-N-(4-(6-(5-((3-(4-((2,6-dioxopiperidin-3-yl)oxy)phenyl)piperidin-1-yl)methyl)pyridin-2-yl)pyrrolo[2,1-f][1,2,4]triazin-4-yl)-2-fluorobenzyl)-1,2,4-oxadiazole-3-carboxamide] registered a DC50 of less than 100 nM. As for `CC(C)(C)c1nc(C(=O)NCc2ccc(-c3ncnn4cc(CCN5CCC(n6ccc(NC7CCC(=O)NC7=O)n6)CC5)cc34)cc2F)no1` (stereo not drawn) [Example 123, 5-tert-butyl-N-[[4-[6-[2-[4-[3-[(2,6-dioxo-3-piperidyl)amino]pyrazol-1-yl]-1-piperidyl]ethyl]pyrrolo[2,1-f][1,2,4]triazin-4-yl]-2-fluoro-phenyl]methyl]-1,2,4-oxadiazole-3-carboxamide], the 50% degradation concentration (DC50) was 100 to 500 nM. `Cc1cc(-c2ncnn3cc(-c4ccc(CN5CCC(c6ccc(NC7CCC(=O)NC7=O)cc6)CC5)cc4)cc23)ccc1CN1CCN(CC(C)(C)C)CC1=O` (stereo not drawn) [Example 103, 3-[4-[1-[[4-[4-[4-[[4-(2,2-dimethylpropyl)-2-oxo-piperazin-1-yl]methyl]-3-methyl-phenyl]pyrrolo[2,1-f][1,2,4]triazin-6-yl]phenyl]methyl]-4-piperidyl]anilino]piperidine-2,6-dione] returned a DC50 of less than 100 nM. Consider `COc1cc(CN2CCC(c3ccc(NC4CCC(=O)NC4=O)cc3)CC2)ccc1-c1cc2c(-c3ccc(CNC(=O)c4noc(C(C)(C)C)n4)c(C)c3)ncnn2c1` (stereo not drawn) [Example 21, 5-tert-butyl-N-[[4-[6-[4-[[4-[4-[(2,6-dioxo-3-piperidyl)amino]phenyl]-1-piperidyl]methyl]-2-methoxy-phenyl]pyrrolo[2,1-f][1,2,4]triazin-4-yl]-2-methyl-phenyl]methyl]-1,2,4-oxadiazole-3-carboxamide], for which the DC50 is less than 100 nM.

`Cc1cc(-c2ncnn3cc(N4CCN(C(=O)C5CC6(CCN(C(=O)c7ccc(OC8CCC(=O)NC8=O)cc7)C6)C5)CC4)cc23)ccc1CNC(=O)c1noc(C(C)(C)C)n1` (stereo not drawn) [Example 178, 5-(tert-butyl)-N-(4-(6-(4-(6-(4-((2,6-dioxopiperidin-3-yl)oxy)benzoyl)-6-azaspiro[3.4]octane-2-carbonyl)piperazin-1-yl)pyrrolo[2,1-f][1,2,4]triazin-4-yl)-2-methylbenzyl)-1,2,4-oxadiazole-3-carboxamide] displayed a half-maximal degradation concentration (DC50) of less than 100 nM. Consider `CC(C)(C)OC1CN(C(=O)NCc2ccc(-c3ncnn4cc(-c5ccc(CN6CCC(c7ccc(NC8CCC(=O)NC8=O)cn7)CC6)cc5)cc34)cc2F)C1` (stereo not drawn) [Example 100, 3-tert-butoxy-N-[[4-[6-[4-[[4-[5-[(2,6-dioxo-3-piperidyl)amino]-2-pyridyl]-1-piperidyl]methyl]phenyl]pyrrolo[2,1-f][1,2,4]triazin-4-yl]-2-fluoro-phenyl]methyl]azetidine-1-carboxamide], for which the DC50 is less than 100 nM. The value for `Cc1cc(-c2ncnn3cc(CN(C)CCN4CCC(c5ccc(C6CCC(=O)NC6=O)cc5)CC4)cc23)ccc1CNC(=O)c1noc(C(C)(C)C)n1` (stereo not drawn) [Example 125, 5-tert-butyl-N-[[4-[6-[[2-[4-[4-(2,6-dioxo-3-piperidyl)phenyl]-1-piperidyl]ethyl-methyl-amino]methyl]pyrrolo[2,1-f][1,2,4]triazin-4-yl]-2-methyl-phenyl]methyl]-1,2,4-oxadiazole-3-carboxamide] was less than 100 nM; that for `Cc1cc(-c2ncnn3cc(-c4ccc(COCCCc5ccc(NC6CCC(=O)NC6=O)cc5)cc4)cc23)ccc1CNC(=O)c1noc(C(C)(C)C)n1` (stereo not drawn) [Example 147, 5-tert-butyl-N-[[4-[6-[4-[3-[4-[(2,6-dioxo-3-piperidyl)amino]phenyl]propoxymethyl]phenyl]pyrrolo[2,1-f][1,2,4]triazin-4-yl]-2-methyl-phenyl]methyl]-1,2,4-oxadiazole-3-carboxamide] was 100 to 500 nM; that for `Cc1cc(-c2ncnn3cc(CC[C@@H](F)CN4CCN(c5ccc(C6CCC(=O)NC6=O)cn5)CC4)cc23)ccc1CNC(=O)c1noc(C(C)(C)C)n1` (single isomer, unassigned) [Example 287] was less than 100 nM. The molecule `COc1ccc(C(=O)NCc2ccc(-c3ncnn4cc(-c5ccc(CN6CCC(c7ccc(NC8CCC(=O)NC8=O)cc7)CC6)cc5)cc34)cc2C)nc1` (stereo not drawn) [Example 93, N-[[4-[6-[4-[[4-[4-[(2,6-dioxo-3-piperidyl)amino]phenyl]-1-piperidyl]methyl]phenyl]pyrrolo[2,1-f][1,2,4]triazin-4-yl]-2-methyl-phenyl]methyl]-5-methoxy-pyridine-2-carboxamide] registered a DC50 of less than 100 nM. The value for `CC(C)(C)c1nc(C(=O)NCc2cc(F)c(-c3ncnn4cc(-c5ccc(CN6CCC(c7ccc(NC8CCC(=O)NC8=O)cc7)CC6)cc5)cc34)cc2Cl)no1` (stereo not drawn) [Example 49, 5-tert-butyl-N-[[2-chloro-4-[6-[4-[[4-[4-[(2,6-dioxo-3-piperidyl)amino]phenyl]-1-piperidyl]methyl]phenyl]pyrrolo[2,1-f][1,2,4]triazin-4-yl]-5-fluoro-phenyl]methyl]-1,2,4-oxadiazole-3-carboxamide] was less than 100 nM.
